# Positions of bridges follow the written chain, without caps; N, C: chain ends. Non-standard residues stand in square brackets, D forms with d. Residues, ends and D or L forms follow the SMILES beside them. dDip = N[C@@H](C(=O)O)C(c1ccccc1)c1ccccc1; Phe(4-Br) = N[C@@H](Cc1ccc(Br)cc1)C(=O)O; Phe(4-Cl) = N[C@@H](Cc1ccc(Cl)cc1)C(=O)O; Dip = N[C@H](C(=O)O)C(c1ccccc1)c1ccccc1; Phe(3-F) = N[C@@H](Cc1cccc(F)c1)C(=O)O; Phe(4-F) = N[C@@H](Cc1ccc(F)cc1)C(=O)O; Phe(4-I) = N[C@@H](Cc1ccc(I)cc1)C(=O)O; dPhe(4-F) = N[C@H](Cc1ccc(F)cc1)C(=O)O; 2Nal = N[C@@H](Cc1ccc2ccccc2c1)C(=O)O; Phe(2-F) = N[C@@H](Cc1ccccc1F)C(=O)O; Bta = N[C@@H](Cc1csc2ccccc12)C(=O)O; 3Pal = N[C@@H](Cc1cccnc1)C(=O)O; Tle = CC(C)(C)[C@H](N)C(=O)O
# Tested on: rat pituitary cells
# Assay type: cell-based
# Conditions: 3 h
# Source text: Bioassay on the In Vitro Release of Growth Hormone
# (a) Rat Pituitary Cell Dispersion
# Pituitaries from adult Charles River CD male rats (Wilmington, Mass.) housed under controlled conditions were dispersed and cultured using aseptic technique by modification of previously described methods (Hoefer, M. T., et al., Mol. Cell. Endocrinol. 35:229 (1984); Ben-Jonathan, N., et al., Methods Enzymol. 103:249 (1983); and Heiman, M. L., et al., Endocrinology 116:410 (1985)). Pituitaries were removed from sacrificed rats, sectioned, and then placed into a siliconized, liquid scintillation vial containing 2 ml 0.2% trypsin (Worthington Biochemicals, Freehold, N.J.) in sterile-filtered Krebs-Ringer bicarbonate buffer supplemented with 1% bovine serum albumin, 14 mM glucose, modified Eagle medium (MEM) vitamin solution, and MEM amino acids (Gibco Laboratories, Grand Island, N.Y.) (KRBGA). All glassware was siliconized as described by Sayers, et al., Endocrinology 88:1063 (1971). The fragments were incubated in a water bath for 35 min at 37° C. with agitation. The vial contents then were poured into a scintillation vial containing 2 ml 0.1% DNase (Sigma Chemical Co., St. Louis, Mo.) in KRBGA and incubated for 2 min at 37° C. with agitation. After incubation, the tissue was decanted into a 15 ml centrifuge tube and allowed to settle. Medium was discarded, and pituitary sections were washed 3 times with 1 ml fresh-KRBGA. The cells were then dispersed in 2 ml 0.05% LBI (lima bean trypsin inhibitor, Worthington Biochemicals) by gently drawing the fragments into and expelling them out of a siliconized, fire polished Pasteur pipette. Dispersed cells were then filtered through a 630 μm diameter Nylon mesh (Tetko, Elmsford, N.Y.) into a fresh 15 ml centrifuge tube. An additional 2 ml of 0.05% LBI solution was used to rinse the first tube and was transferred to the second tube with filtering.
# The dispersed cells were then further diluted with approximately 15 ml sterile-filtered Dulbecco's modified Eagle medium (GIBCO), which was supplemented with 2.5% fetal calf serum (GIBCO), 3% horse serum (GIBCO), 10% fresh rat serum (stored on ice for no longer than 1 hr) from the pituitary donors, 1% MEM non-essential amino acids (GIBCO), and gentamycin (10 ng/ml; Sigma) and nystatin (10,000 U/ml; GIBCO). The cells were poured into a 50 ml round-bottomed glass extraction flask with a large diameter opening and then randomly plated at a density of approximately 200,000 cells per well (Co-star cluster 24; Rochester Scientific Co., Rochester, N.Y.). The plated cells were maintained in the above Dulbecco's medium in a humidified atmosphere of 95% air and 5% CO2 at 37° C. for 4-5 days.
# (c) Experimental Incubation and IC50 Determination
# In preparation for a hormone challenge, the cells were washed 3 times with medium 199 (GIBCO) to remove old medium and floating cells. Each treatment well contained a total volume of 1 ml medium 199 containing 1% BSA (fraction V; Sigma) with treatments as described below. Each antagonist candidate was tested using a single 24-well cell culture plate. Each treatment was performed in triplicate. Each plate contained 8 treatment groups: one 1 nM growth hormone releasing factor (GRF) (1-29)NH2-stimulated control group; one 1 nM somatostatin-inhibited control group in the presence of 1 nM GRF(1-29)NH2; and 6 doses of a given antagonist in the presence of both 1 nM SRIF and 1 nM GRF per plate. After 3 hrs at 37° C. in a air/carbon dioxide atmosphere (95/5%), the medium was removed and stored at −20° C. until radioimmunoassayed for growth hormone content. IC50's of each antagonist versus 1 nM SRIF were calculated using a computer program (SigmaPlot, Jandel Scientific, San Rafael, Calif.) with the maximum response constrained to the value of the 1 nM GRF(1-29)NH2-stimulated control.
row,SMILES,IC50 [µM]
1,"CC(C)[C@@H]1NC(=O)[C@H](CCCCN)NC(=O)[C@@H](Cc2c[nH]c3ccccc23)NC(=O)[C@H](Cc2cccnc2)NC(=O)[C@H](NC(=O)[C@@H](N)Cc2ccc(I)cc2)CSSC[C@@H](C(=O)N[C@@H](Cc2ccc(I)cc2)C(N)=O)NC1=O [Analog No. 53, H2-Iph-D-Cys-Pal-D-Trp-Lys-Val-Cys-Iph-NH2] (H-[Phe(4-I)][dC][3Pal][dW]KVC[Phe(4-I)]-NH2; disulfide 2-7)",0.0029
2,"CC(C)[C@@H]1NC(=O)[C@H](CCCCN)NC(=O)[C@@H](Cc2c[nH]c3ccccc23)NC(=O)[C@H](Cc2cccnc2)NC(=O)[C@H](NC(=O)[C@@H](N)Cc2ccc3ccccc3c2)CSSC[C@@H](C(=O)N[C@@H](Cc2ccc3ccccc3c2)C(N)=O)NC1=O [Analog No. 3, H2-β-Nal-D-Cys-Pal-D-Trp-Lys-Val-Cys-β-Nal-NH2] (H-[2Nal][dC][3Pal][dW]KVC[2Nal]-NH2; disulfide 2-7)",0.01
3,"CC(C)[C@@H]1NC(=O)[C@H](CCCCN)NC(=O)[C@@H](Cc2c[nH]c3ccccc23)NC(=O)[C@H](Cc2c[nH]cn2)NC(=O)[C@H](NC(=O)[C@@H](N)Cc2ccccc2F)CSSC[C@@H](C(=O)N[C@@H](Cc2ccccc2F)C(N)=O)NC1=O [Analog No. 41, H2-o-F-Phe-D-Cys-His-D-Trp-Lys-Val-Cys-o-F-Phe-NH2] (H-[Phe(2-F)][dC]H[dW]KVC[Phe(2-F)]-NH2; disulfide 2-7)",0.21
4,"CC(C)[C@@H]1NC(=O)[C@H](CCCCN)NC(=O)[C@@H](Cc2c[nH]c3ccccc23)NC(=O)[C@H](Cc2cccnc2)NC(=O)[C@H](NC(=O)[C@@H](N)Cc2ccc(Br)cc2)CSSC[C@@H](C(=O)N[C@@H](Cc2ccc(Br)cc2)C(N)=O)NC1=O [Analog No. 52, H2-Bpa-D-Cys-Pal-D-Trp-Lys-Val-Cys-Bpa-NH2] (H-[Phe(4-Br)][dC][3Pal][dW]KVC[Phe(4-Br)]-NH2; disulfide 2-7)",0.0026
5,"CC(C)(C)[C@@H]1NC(=O)[C@H](CCCCN)NC(=O)[C@@H](Cc2c[nH]c3ccccc23)NC(=O)[C@H](Cc2cccnc2)NC(=O)[C@H](NC(=O)[C@@H](N)Cc2ccc(Cl)cc2)CSSC[C@@H](C(=O)N[C@@H](Cc2ccc(Cl)cc2)C(N)=O)NC1=O [Analog No. 57, H2-p-Cl-Phe-D-Cys-Pal-D-Trp-Lys-Tle-Cys-p-Cl-Phe-NH2] (H-[Phe(4-Cl)][dC][3Pal][dW]K[Tle]C[Phe(4-Cl)]-NH2; disulfide 2-7)",0.0059
6,"CC(C)[C@@H]1NC(=O)[C@H](CCCCN)NC(=O)[C@@H](Cc2c[nH]c3ccccc23)NC(=O)[C@H](Cc2c[nH]cn2)NC(=O)[C@H](NC(=O)[C@@H](N)C(c2ccccc2)c2ccccc2)CSSC[C@@H](C(=O)N[C@H](C(N)=O)C(c2ccccc2)c2ccccc2)NC1=O [Analog No. 21, H2-Dip-D-Cys-His-D-Trp-Lys-Val-Cys-Dip-NH2] (H-[Dip][dC]H[dW]KVC[Dip]-NH2; disulfide 2-7)",0.97
7,"CC(C)[C@@H]1NC(=O)[C@H](CCCCN)NC(=O)[C@@H](Cc2c[nH]c3ccccc23)NC(=O)[C@H](Cc2cccnc2)NC(=O)[C@H](NC(=O)[C@@H](N)Cc2ccccc2F)CSSC[C@@H](C(=O)N[C@@H](Cc2ccccc2F)C(N)=O)NC1=O [Analog No. 15, H2-o-F-Phe-D-Cys-Pal-D-Trp-Lys-Val-Cys-o-F-Phe-NH2] (H-[Phe(2-F)][dC][3Pal][dW]KVC[Phe(2-F)]-NH2; disulfide 2-7)",0.14

# Now from value to compound:
row,IC50 [µM],SMILES
1,0.23,"CC(C)[C@@H]1NC(=O)[C@H](CCCCN)NC(=O)[C@@H](Cc2c[nH]c3ccccc23)NC(=O)[C@H](Cc2csc3ccccc23)NC(=O)[C@H](NC(=O)[C@@H](N)Cc2ccc3ccccc3c2)CSSC[C@@H](C(=O)N[C@@H](Cc2ccc3ccccc3c2)C(N)=O)NC1=O [Analog No. 49, H2-β-Nal-D-Cys-Bta-D-Trp-Lys-Val-Cys-β-Nal-NH2] (H-[2Nal][dC][Bta][dW]KVC[2Nal]-NH2; disulfide 2-7)"
2,0.11,"CC(C)[C@@H]1NC(=O)[C@H](CCCCN)NC(=O)[C@@H](Cc2c[nH]c3ccccc23)NC(=O)[C@H](Cc2c[nH]cn2)NC(=O)[C@H](NC(=O)[C@@H](N)Cc2ccc(F)cc2)CSSC[C@@H](C(=O)N[C@@H](Cc2ccc(F)cc2)C(N)=O)NC1=O [Analog No. 38, H2-p-F-Phe-D-Cys-His-D-Trp-Lys-Val-Cys-p-F-Phe-NH2] (H-[Phe(4-F)][dC]H[dW]KVC[Phe(4-F)]-NH2; disulfide 2-7)"
3,0.11,"CC(C)[C@@H]1NC(=O)[C@H](CCCCN)NC(=O)[C@@H](Cc2c[nH]c3ccccc23)NC(=O)[C@H](Cc2c[nH]cn2)NC(=O)[C@H](NC(=O)[C@@H](N)Cc2cccc(F)c2)CSSC[C@@H](C(=O)N[C@@H](Cc2cccc(F)c2)C(N)=O)NC1=O [Analog No. 40, H2-m-F-Phe-D-Cys-His-D-Trp-Lys-Val-Cys-m-F-Phe-NH2] (H-[Phe(3-F)][dC]H[dW]KVC[Phe(3-F)]-NH2; disulfide 2-7)"
4,0.0026,"CC(C)[C@@H]1NC(=O)[C@H](CCCCN)NC(=O)[C@@H](Cc2c[nH]c3ccccc23)NC(=O)[C@H](Cc2cccnc2)NC(=O)[C@H](NC(=O)[C@@H](N)Cc2ccc(Cl)cc2)CSSC[C@@H](C(=O)N[C@@H](Cc2ccc3ccccc3c2)C(N)=O)NC1=O [Analog No. 55, H2-p-Cl-Phe-D-Cys-Pal-D-Trp-Lys-Val-Cys-β-Nal-NH2] (H-[Phe(4-Cl)][dC][3Pal][dW]KVC[2Nal]-NH2; disulfide 2-7)"
5,0.066,"CC(C)[C@@H]1NC(=O)[C@H](CCCCN)NC(=O)[C@@H](Cc2c[nH]c3ccccc23)NC(=O)[C@H](Cc2c[nH]cn2)NC(=O)[C@H](NC(=O)[C@@H](N)Cc2ccc3ccccc3c2)CSSC[C@@H](C(=O)N[C@@H](Cc2ccc3ccccc3c2)C(N)=O)NC1=O [Analog No. 22, H2-β-Nal-D-Cys-His-D-Trp-Lys-Val-Cys-β-Nal-NH2] (H-[2Nal][dC]H[dW]KVC[2Nal]-NH2; disulfide 2-7)"
6,0.11,"CC(C)[C@@H]1NC(=O)[C@H](CCCCN)NC(=O)[C@@H](Cc2c[nH]c3ccccc23)NC(=O)[C@H](Cc2c[nH]cn2)NC(=O)[C@H](NC(=O)[C@@H](N)Cc2ccc3ccccc3c2)CSSC[C@@H](C(=O)N[C@@H](C(N)=O)C(c2ccccc2)c2ccccc2)NC1=O [Analog No. 19, H2-β-Nal-D-Cys-His-D-Trp-Lys-Val-Cys-D-Dip-NH2] (H-[2Nal][dC]H[dW]KVC[dDip]-NH2; disulfide 2-7)"
7,0.1,"CC(C)[C@@H]1NC(=O)[C@H](CCCCN)NC(=O)[C@@H](Cc2c[nH]c3ccccc23)NC(=O)[C@H](Cc2cccnc2)NC(=O)[C@H](NC(=O)[C@@H](N)Cc2ccc3ccccc3c2)CSSC[C@@H](C(=O)N[C@H](Cc2ccc(F)cc2)C(N)=O)NC1=O [Analog No. 28, H2-β-Nal-D-Cys-Pal-D-Trp-Lys-Val-Cys-D-p-F-Phe-NH2] (H-[2Nal][dC][3Pal][dW]KVC[dPhe(4-F)]-NH2; disulfide 2-7)"
8,0.12,"CC(C)[C@@H]1NC(=O)[C@H](CCCCN)NC(=O)[C@@H](Cc2c[nH]c3ccccc23)NC(=O)[C@H](Cc2c[nH]cn2)NC(=O)[C@H](NC(=O)[C@@H](N)C(c2ccccc2)c2ccccc2)CSSC[C@@H](C(=O)N[C@@H](Cc2ccc3ccccc3c2)C(N)=O)NC1=O [Analog No. 20, H2-Dip-D-Cys-His-D-Trp-Lys-Val-Cys-β-Nal-NH2] (H-[Dip][dC]H[dW]KVC[2Nal]-NH2; disulfide 2-7)"
9,0.00082,"CC(C)[C@@H]1NC(=O)[C@H](CCCCN)NC(=O)[C@@H](Cc2c[nH]c3ccccc23)NC(=O)[C@H](Cc2cccnc2)NC(=O)[C@H](NC(=O)[C@@H](N)Cc2ccc(Cl)cc2)CSSC[C@@H](C(=O)N[C@@H](Cc2ccc(Cl)cc2)C(N)=O)NC1=O [Analog No. 43, H2-Cpa-D-Cys-Pal-D-Trp-Lys-Val-Cys-Cpa-NH2] (H-[Phe(4-Cl)][dC][3Pal][dW]KVC[Phe(4-Cl)]-NH2; disulfide 2-7)"

# From US9133262B2, “Somatostatin antagonists” (Ipsen Pharma S.A.S., priority 1996, dated 2015)
